In BigSolDB 2.1:

O=c1[nH]cc(F)c(=O)[nH]1
Settings	solubility (mole fraction)
in 1,4-dioxane, 290.2 K	0.00112
in 1,4-dioxane, 291.3 K	0.00123
in 1,4-dioxane, 300.9 K	0.00158
in 1,4-dioxane, 305.2 K	0.00176
in 1,4-dioxane, 306.4 K	0.00187
in 1,4-dioxane, 310.4 K	0.00205
in 1,4-dioxane, 313.3 K	0.00218
in 1,4-dioxane, 313.9 K	0.00225
in 1,4-dioxane, 318 K	0.00247
in 1,4-dioxane, 319.5 K	0.00258
in 1,4-dioxane, 322.8 K	0.00284
in 1,4-dioxane, 329.8 K	0.00332
in THF, 279.6 K	0.00246
in THF, 287 K	0.00273
in THF, 293.2 K	0.00289
in THF, 303.8 K	0.00328
in THF, 308.7 K	0.00349
in THF, 314.6 K	0.00367
in THF, 325.2 K	0.00418
in THF, 328.6 K	0.00454
in acetone, 282.9 K	0.00152
in acetone, 290.2 K	0.00175
in acetone, 298.4 K	0.00199
in acetone, 302.5 K	0.00219
in acetone, 305.1 K	0.00229
in acetone, 307.4 K	0.00244
in acetone, 315.2 K	0.0028
in acetone, 316.9 K	0.00299
in acetone, 322.4 K	0.00304
in acetonitrile, 290.3 K	0.00046
in acetonitrile, 294.6 K	0.00053
in acetonitrile, 299.1 K	0.00062
in acetonitrile, 300.3 K	0.00066
in acetonitrile, 306.6 K	0.00081
in acetonitrile, 307.6 K	0.00083
in acetonitrile, 316 K	0.00102
in acetonitrile, 320.2 K	0.00121
in acetonitrile, 329 K	0.00143
in acetonitrile, 332.3 K	0.00162
in ethanol, 281.1 K	0.00099
in ethanol, 286.9 K	0.00124
in ethanol, 291.2 K	0.00137
in ethanol, 297.7 K	0.00167
in ethanol, 306.2 K	0.00206
in ethanol, 309.1 K	0.00216
in ethanol, 314.8 K	0.0026
in ethanol, 315.1 K	0.00267
in ethanol, 322.8 K	0.0032
in ethanol, 323.7 K	0.00329
in ethanol, 325.6 K	0.00366
in ethanol, 329.9 K	0.00399
in ethyl acetate, 291.1 K	0.00041
in ethyl acetate, 297 K	0.00048
in ethyl acetate, 300.6 K	0.00054
in ethyl acetate, 310.8 K	0.00063
in ethyl acetate, 320.3 K	0.00077
in ethyl acetate, 330.6 K	0.00099
in isopropanol, 282.1 K	0.00085
in isopropanol, 284.6 K	0.00089
in isopropanol, 286.8 K	0.00102
in isopropanol, 294.9 K	0.00119
in isopropanol, 301.3 K	0.00147
in isopropanol, 302.4 K	0.00163
in isopropanol, 308 K	0.00188
in isopropanol, 311.6 K	0.00217
in isopropanol, 316.2 K	0.00237
in isopropanol, 318 K	0.00258
in isopropanol, 323 K	0.00301
in isopropanol, 327.5 K	0.00346
in isopropanol, 330 K	0.00381
in methanol, 280 K	0.00165
in methanol, 287.7 K	0.00216
in methanol, 295.8 K	0.00289
in methanol, 306.8 K	0.00379
in methanol, 318.4 K	0.00502
in methanol, 326 K	0.00581
in methanol, 328.8 K	0.00661
in n-butanol, 280.1 K	0.00058
in n-butanol, 283 K	0.00059
in n-butanol, 287.8 K	0.00086
in n-butanol, 299.5 K	0.00103
in n-butanol, 303.4 K	0.00121
in n-butanol, 306.3 K	0.00141
in n-butanol, 314.8 K	0.00182
in n-butanol, 325.8 K	0.0026
in n-butanol, 327 K	0.00267
in n-butanol, 331.5 K	0.00313
in n-propanol, 280.8 K	0.00082
in n-propanol, 282.4 K	0.00089
in n-propanol, 291.2 K	0.00098
in n-propanol, 294.5 K	0.00108
in n-propanol, 298.4 K	0.00121
in n-propanol, 302.2 K	0.00123
in n-propanol, 308.6 K	0.00149
in n-propanol, 313 K	0.00172
in n-propanol, 315.1 K	0.00179
in n-propanol, 318.3 K	0.00208
in n-propanol, 322.3 K	0.00224
in n-propanol, 324.3 K	0.00245
in n-propanol, 326.2 K	0.00263
in water, 280.1 K	0.00091
in water, 282.5 K	0.00093
in water, 290.8 K	0.00124
in water, 294.5 K	0.00147
in water, 304.4 K	0.0021
in water, 312.1 K	0.00288
in water, 317.5 K	0.00337
in water, 323 K	0.00402
